Test system: oral mucositis in a hamster model following irradiation
Experiment: Hamster model of radiation-induced oral mucositis (mucositis score)
Type: in vivo, Golden Syrian hamsters
[1] = solution containing 17.5 mg/ml, 0.5 ml into left cheek pouch three times per day, Day 0 to Day 19, single radiation dose 35-38 Gy
[2] = solution containing 3.5 mg/ml, 0.5 ml into left cheek pouch three times per day, Day 0 to Day 19, single radiation dose 35-38 Gy

Text: Briefly, male Golden Syrian hamsters (Charles River Laboratories), aged 5 to 6 weeks, with body weights of approximately 90 g at project commencement, were used. Animals were individually numbered using an ear punch and housed in small groups of approximately 6 animals per cage. Animals were acclimatized for at least one week prior to project commencement. During this period, the animals were observed daily in order to reject animals that presented in poor condition. Animals were fed with a standard hamster chow and water ad libitum.
Mucositis was induced using an acute radiation protocol. A single dose of radiation (35-38 Gy/dose) was administered to all animals on Day 0. Radiation was generated with a 250 kilovolt potential (15 mA) source at a focal distance of 50 cm, hardened with a 0.35 mm Cu filtration system. […] Prior to irradiation, animals were anesthetized with an intraperitoneal injection of sodium pentobarbital (80 mg/kg). The left buccal pouch was everted, fixed and isolated using a lead shield.
All animals were dosed with test material three times per day. A needleless tuberculin syringe containing 0.5 ml of the test compound was inserted into the left cheek pouch and the drug deposited into the pouch. Dosing began on Day 0 and continued until Day 19.
The mucositis score, weight change and survival were measured as outcomes in this study. For the evaluation of mucositis, the animals were anesthetized with inhalation anesthetics, and the left pouch everted. Mucositis was scored visually by comparison to a validated photographic scale, ranging from 0 for normal to 5 for severe ulceration (clinical scoring). In descriptive terms, this scale is defined as follows:
A score of 1-2 is considered to represent a mild stage of the disease, whereas a score of 3-5 is considered to indicate moderate to severe mucositis. Following visual scoring, a photograph was taken of each animal's mucosa using a standardized technique. At the conclusion of the experiment, all films were developed and the photographs randomly numbered. At least two independent trained observers graded the photographs in blinded fashion using the above-described scale (blinded scoring).

Row | Compound | improvement in mucositis scores (time with score of three or higher) [1] | improvement in mucositis scores (time with score of three or higher) [2] | further results
1 | bismuth subgallate | did not show a statistically significant improvement | – | –
2 | O=C([O-])c1ccccc1[O-].[Bi+3].[OH-] [bismuth salicylate basic] | – | showed improvement in their mucositis scores | –
3 | O=[N+]([O-])[O-].O=[N+]([O-])[O-].O=[N+]([O-])[O-].O=[N+]([O-])[O-].[Bi+3].[Bi+3].[Bi+3].[Bi+3].[Bi+3].[O-2].[OH-].[OH-].[OH-].[OH-].[OH-].[OH-].[OH-].[OH-].[OH-] [bismuth subnitrate] | did not show a statistically significant improvement | – | –
4 | bismuth (III) oxide | did not show a statistically significant improvement | – | –
5 | N[C@@H](CCC(=O)N[C@@H](CS)C(=O)NCC(=O)O)C(=O)O.[Bi] [bismuth glutathione, Bismuth Glutathione] | – | – | improvement in mucositis scores (time with score of three or higher) (hamster, in vivo): showed improvement in their mucositis scores
6 | O=C([O-])CC(O)(CC(=O)[O-])C(=O)[O-].[Bi+3] [bismuth citrate] | – | showed improvement in their mucositis scores | –
7 | O=C([O-])c1ccccc1.O=C([O-])c1ccccc1.O=C([O-])c1ccccc1.[Bi+3] [bismuth benzoate, Bismuth Benzoate] | – | showed improvement in their mucositis scores | –
8 | O=C([O-])[C@H]([O-])[C@@H]([O-])C(=O)[O-].[Bi+3].[K+] [bismuth potassium tartrate] | did not show a statistically significant improvement | – | –
9 | Bismuth Ascorbate | – | – | improvement in mucositis scores (time with score of three or higher) (solution containing 1.75 mg/ml, 0.5 ml into left cheek pouch three times per day, Day 0 to Day 19, single radiation dose 35-38 Gy): showed improvement in their mucositis scores
10 | O=C([O-])[O-].[Bi+3].[Bi+3].[O-2].[O-2] [bismuth subcarbonate] | did not show a statistically significant improvement | – | –
